Measurements from patent US20090105136A1, “NPY Y2 Agonist for Use as Therapeutic Agent for Disease Accompanied by Diarrhea” (priority 2005, published 2009).

Test system: mice (C57BL/6)
Experiment: Motility of stomach and small intestine (charcoal transit, GI motility)
Type: in vivo
Conditions: 0.3 mg/kg or 3 mg/kg intraperitoneal; 30 minutes after oral charcoal; vs vehicle control mice; FIG. 1
Description: At the same time, control mice (vehicle) to which only a vehicle was administered were prepared, and the same test was carried out using these mice. The motility of stomach and small intestine was measured as follows. That is, charcoal powder was suspended in a 0.5% methyl cellulose solution and the resulting suspension was orally administered to the mice. After 30 minutes, the distance that the charcoal entering into the stomach traveled in the intestinal tract was measured by dissection. At the same time, the total length of the small intestine from the pyloric portion of stomach to the beginning of the cecum was also measured, and the ratio (%) of the distance that the charcoal traveled to the total length of the small intestine was plotted in a graph as a GI (gastrointestinal) motility.

## neuropeptide Y [NPY]
  GI (gastrointestinal) motility: ratio of distance the charcoal traveled to total length of small intestine: lower than that of the control mice
